This is an account of results in ChEMBL document CHEMBL1201862, “PubChem BioAssay data set” (2004).

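48-hour exposure; five concentrations; linearly interpolated endpoints. GI50 = concentration required for 50% inhibition of growth.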 Active and inactive are the calls of the source. Rule as the data show it: active = GI50 up to about 1.1 µM and inactive = higher. Some results are limits rather than exact numbers.

Assay in all cases: NCI tumour cell line growth inhibition, 48 h
Assay [1] deals with M14.
The subject of assay [2] is BT-549.
In assay [3] the test system is HOP-92.
For assay [4], the system named is NCI/ADR-RES.
For assay [5], the system named is IGROV-1.
Assay [6] concerns UACC-62.
Assay [7] deals with OVCAR-3.
In assay [8] the test system is T47D.
Assay [9] has as its system HCT-15.
In assay [10] the test system is SK-OV-3.
Assay [11] concerns A498.
Assay [12] relates to 786-0.
Assay [13] has as its system MOLT-4.
The subject of assay [14] is U-251.
The test system of assay [15] is PC-3.
Assay [16] concerns K562.
Assay [17] concerns HCC 2998.
The test system of assay [18] is SNB-75.
Assay [19] concerns RPMI-8226.
Assay [20] has as its system Malme-3M.

With `O=C(NC1CCCCC1)c1nn[nH]c1Cl`, the GI50 in assay [1], in [2], in [3], in [4], in assay [5] and in assay [6] was > 100 µM (inactive) in each case. Also, the GI50 in assay [7] is > 100 µM (inactive); in assay [8], > 100 µM (inactive); in assay [9], above 100 µM; in assay [10], > 100 µM (inactive); in assay [11], > 100 µM (inactive); in assay [12], > 100 µM (inactive). For the same compound, the GI50 in assay [13], in [14], in [15], in assay [16] and in assay [17] was > 100 µM (inactive) in each case.
As for `CC1CCC2C(C)C(OC(=O)CCC(=O)O)OC3OC4(C)CCC1C32OO4` (stereo not drawn), the GI50 is 17.2 µM (inactive) in [1]; 11.2 µM (inactive) in assay [2]; 11.6 µM (inactive) in [3]; 19.3 µM (inactive) in assay [18]; 4.62 µM (inactive) in [4]; 10.4 µM (inactive) in [5]. Besides, the GI50 in [6] was 6.15 µM (inactive); in [7] it was 5.52 µM (inactive); in assay [8], 0.828 µM (active); in assay [19], 0.246 µM (active); in assay [9], 0.388 µM; in [10], 53.6 µM (inactive). For the same compound, the GI50 in [11] is 27.2 µM (inactive); in assay [12], 15.4 µM (inactive); in assay [13], 0.346 µM (active); in [14], 2.98 µM (inactive); in assay [15], 0.353 µM (active); in assay [16], 1.32 µM (inactive). In [17], the GI50 was 5.94 µM (inactive).
As to `CC1OC(OC2C(O[C@H]3CC[C@@]4(C)C(=CC[C@H]5[C@@H]6C[C@@H]7O[C@]8(CC[C@H](C)CN8)[C@@H](C)[C@@H]7[C@@]6(C)CC[C@@H]54)C3)OC(CO)C(O)C2OC2OC(CO)C(O)C(O)C2O)C(O)C(O)C1O` (stereo partly drawn), the GI50 in assay [1] was 18.4 µM (inactive); in [2], 17 µM (inactive); in assay [20], 18 µM (inactive); in [3] it was 17.5 µM (inactive); in assay [18], 14.5 µM (inactive); in assay [4] it was 16.4 µM (inactive). Also, the GI50 in assay [5] was 19.5 µM (inactive); in assay [6] it was 17.6 µM (inactive); in assay [8] it was 19.5 µM (inactive); in [9], 16.7 µM; in assay [10] it was 16.9 µM (inactive); in [11], 26.9 µM (inactive). Further, the GI50 in assay [12] was 24 µM (inactive); in assay [13] it was 18.9 µM (inactive); in assay [14] it was 37.2 µM (inactive); in assay [15], 18.1 µM (inactive); in assay [16], > 10 µM (inactive); in assay [17], 18.3 µM (inactive).
For `CCOC(=O)C1C(c2ccc(OC)cc2)c2c(n[nH]c2O)CC1(O)OCC` (stereo not drawn), the GI50 in [1], in assay [2], in assay [20], in [3], in [18] and in assay [4] was > 100 µM (inactive) each time. Moreover, the GI50 in assay [5] was > 100 µM (inactive); in [6], > 100 µM (inactive); in assay [7], > 100 µM (inactive); in assay [8], > 100 µM (inactive); in [19], > 100 µM (inactive); in assay [9], above 100 µM. Moreover, the GI50 in assay [11], in assay [12], in assay [13], in [14], in assay [15] and in assay [17] was > 100 µM (inactive) throughout.
In the case of `CC1(C)O[C@H]2[C@@H]3N=C(c4ccccc4)O[C@@H]3C=C[C@H]2O1`, the GI50 was > 100 µM (inactive) in assay [1]; > 100 µM (inactive) in assay [2]; 83.2 µM (inactive) in assay [3]; > 100 µM (inactive) in assay [4]; > 100 µM (inactive) in assay [5]; > 100 µM (inactive) in assay [6]. In addition, the GI50 was > 100 µM (inactive) in [7]; > 100 µM (inactive) in [8]; > 100 µM (inactive) in assay [19]; above 100 µM in assay [9]; > 100 µM (inactive) in [10]; > 100 µM (inactive) in assay [11]. The GI50 in assay [12], in assay [13], in [14], in assay [15], in assay [16] and in [17] was > 100 µM (inactive) throughout.
Consider `COC(=O)c1c(C)cccc1C1CN=NC12Cc1cccc(C)c1C2=O` (stereo not drawn), for which the GI50 in assay [1] is 10.4 µM (inactive); in assay [2], 23.6 µM (inactive); in assay [20], 29.1 µM (inactive); in assay [3], 14.8 µM (inactive); in assay [18] it was 38.4 µM (inactive); in assay [4] it was 21.7 µM (inactive). In addition, the GI50 in assay [5] is 27.7 µM (inactive); in assay [6], 26.9 µM (inactive); in assay [8], 24 µM (inactive); in assay [19] it was 17.2 µM (inactive); in [9] it was 34 µM; in assay [11] it was 52 µM (inactive). Also, the GI50 in assay [12] is 39.1 µM (inactive); in assay [14], 39.4 µM (inactive); in assay [15], 20.3 µM (inactive); in assay [16], 25.9 µM (inactive); in assay [17], 38 µM (inactive).
For the compound `CCCCCC(/C=N/NC(N)=S)C(O)(C(F)(F)F)C(F)(F)F` (stereo not drawn), the GI50 in assay [1], in [2], in assay [20], in assay [3], in assay [18] and in [4] was > 10 µM (inactive) each time. For the same compound, the GI50 in assay [5] is > 10 µM (inactive); in assay [6], > 10 µM (inactive); in [7] it was > 10 µM (inactive); in assay [8], > 10 µM (inactive); in [9] it was above 10 µM; in [10], > 10 µM (inactive). Besides, the GI50 in [11], in assay [12], in assay [13], in assay [14], in [15] and in assay [16] was > 10 µM (inactive) each time. Further, the GI50 in assay [17] is > 10 µM (inactive).
With `COc1cc(S(=O)(=O)Nc2nc(-c3ccc(N)cc3)cs2)ccc1Cl`, the GI50 in assay [1] was 59.8 µM (inactive); in assay [2] it was 51.9 µM (inactive); in assay [20] it was > 100 µM (inactive); in [3] it was 64.9 µM (inactive); in [18], > 100 µM (inactive); in assay [4], 89.5 µM (inactive). The GI50 is 44.7 µM (inactive) in [5]; 28.4 µM (inactive) in assay [6]; 54.3 µM (inactive) in assay [7]; 38.5 µM (inactive) in assay [8]; 63.8 µM in [9]; 97.9 µM (inactive) in assay [10]. For the same compound, the GI50 was 84.3 µM (inactive) in assay [11]; > 100 µM (inactive) in assay [12]; 53.7 µM (inactive) in [13]; 63 µM (inactive) in [14]; 51.8 µM (inactive) in [15]; 58.2 µM (inactive) in assay [16].
For `COC(=O)C1C(=O)CC(C)(O)C(C(=O)OC)C1c1ccc(N(C)C)cc1` (stereo not drawn), the GI50 in [2], in assay [20], in assay [3], in assay [18], in [4] and in assay [5] was > 100 µM (inactive) in each case. Further, the GI50 in assay [6] was > 100 µM (inactive); in assay [7], > 100 µM (inactive); in [8], > 100 µM (inactive); in [9] it was above 100 µM; in [11] it was > 100 µM (inactive); in assay [12], 12 µM (inactive). For the same compound, the GI50 in [13], in assay [14], in assay [15], in assay [16] and in [17] was > 100 µM (inactive) each time.
Regarding `CC(C)(O)CCC(O)C(C)(O)C1CCC2(O)C3=CC(=O)C4(O)CC(O)C(O)CC4(C)C3CCC12C.CC(C)(O)CCC(O)C(C)(O)C1CCC2(O)C3=CC(=O)C4CC(O)C(O)CC4(C)C3CCC12C` (stereo not drawn), the GI50 in [1], in [2], in [20], in [3], in assay [18] and in assay [4] was > 100 µM (inactive) throughout. Also, the GI50 in assay [5] was > 100 µM (inactive); in assay [6] it was > 100 µM (inactive); in assay [7], > 100 µM (inactive); in [8], > 100 µM (inactive); in assay [9] it was above 100 µM; in [10], > 100 µM (inactive). Besides, the GI50 in [11], in assay [12], in [13], in assay [14], in [15] and in assay [16] was > 100 µM (inactive) throughout.
On to `Cc1ccc(CC2(C(=O)O)Cc3ccc(C)cc3C2)cc1` (stereo not drawn), for which the GI50 in assay [1] is > 100 µM (inactive); in [2], 65.3 µM (inactive); in [20], > 100 µM (inactive); in assay [18], > 100 µM (inactive); in assay [4], > 100 µM (inactive); in [5] it was > 100 µM (inactive). Moreover, the GI50 in assay [6] was 56.5 µM (inactive); in [7], > 100 µM (inactive); in assay [8], > 100 µM (inactive); in [19] it was 69.3 µM (inactive); in assay [9], 54 µM; in [10], > 100 µM (inactive). The GI50 is > 100 µM (inactive) in [11]; > 100 µM (inactive) in [12]; > 100 µM (inactive) in assay [13]; 71.3 µM (inactive) in [14]; 51.5 µM (inactive) in assay [15]; 61.7 µM (inactive) in assay [16]. The GI50 in assay [17] is > 100 µM (inactive).
